# Test results taken from publication PMC3265452 (PLoS Neglected Tropical Diseases, 2012).
# Where a name gives a salt, the structure may show the parent alone.
# Target: AaDOP2 (Aedes aegypti, UniProt H6D5H2)
# Test: AaDOP2 antagonist screen of the LOPAC1280 library (HEK-CRELuc-Aadop2 cells, luminescence)
# Assay type: cell-based
# Conditions: not given
# AaDOP2, sequence (H6D5H2 1-476): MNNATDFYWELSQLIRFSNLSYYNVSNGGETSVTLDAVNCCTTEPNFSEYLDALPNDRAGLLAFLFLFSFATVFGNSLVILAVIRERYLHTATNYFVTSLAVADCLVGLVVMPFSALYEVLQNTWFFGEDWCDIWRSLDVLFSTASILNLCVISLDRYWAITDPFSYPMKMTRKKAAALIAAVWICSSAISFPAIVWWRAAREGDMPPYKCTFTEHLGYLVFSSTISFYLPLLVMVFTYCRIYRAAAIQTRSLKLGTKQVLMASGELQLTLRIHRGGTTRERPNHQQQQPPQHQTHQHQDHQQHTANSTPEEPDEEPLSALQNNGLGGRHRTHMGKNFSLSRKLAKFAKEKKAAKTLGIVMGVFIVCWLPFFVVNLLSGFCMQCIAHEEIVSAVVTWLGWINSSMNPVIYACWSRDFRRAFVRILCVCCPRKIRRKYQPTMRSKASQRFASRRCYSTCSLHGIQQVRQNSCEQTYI
row,Compound,"Compound effect (percent receptor signaling in presence of test compound, relative lux units relative to the SCH23390 control)"
1,"C#CCOC(=O)C1=CCCN(C)C1 [Compound 126, Arecaidine propargyl ester hydrobromide]",85
2,"COc1cc(C=C(C#N)C#N)cc(O)c1O [Compound 1189, Tyrphostin AG 34]",74
3,"Oc1ccc2c3c1O[C@H]1c4oc5ccccc5c4C[C@@]4(O)[C@@H](C2)N(CC2CC2)CC[C@]314 [Compound 886, Naltriben methanesulfonate]",102
4,"N#C/C(=C\c1ccc(O)c(O)c1)C(N)=S [Compound 1203, Tyrphostin 47]",61
5,"Cl.Clc1ccc(Cn2c(CN3CCCC3)nc3ccccc32)cc1 [Compound 269, Clemizole hydrochloride]",96
6,"NC(CP(=O)(O)O)C(=O)O (racemic) [Compound 55, (±)-2-Amino-3-phosphonopropionic acid]",102
7,"NC(=O)CC[C@H](N)C(=O)O [Compound 551, L-Glutamine]",115
8,"Cc1ccccc1CNc1ncnc2c1ncn2[C@@H]1O[C@H](CO)[C@@H](O)[C@H]1O [Compound 834, Metrifudil]",96
9,"Cl.c1ccc2sc(C3(N4CCCCC4)CCCCC3)cc2c1 [Compound 207, BTCP hydrochloride]",100
10,"CC(C)COC(=O)OCN1C(=O)CN(CCN2CC(=O)N(COC(=O)OCC(C)C)C(=O)C2)CC1=O [Compound 1070, Sobuzoxane]",96
11,"O=C(O)CCc1nc(-c2ccccc2)c(-c2ccccc2)o1 [Compound 911, Oxaprozin]",106
12,"COc1ccccc1N1CCNCC1.Cl [Compound 1129, 1-(2-Methoxyphenyl)piperazine hydrochloride]",64
13,"O=C(O)c1cc(O)cc(C(=O)O)n1 [Compound 302, Chelidamic acid]",82
14,"CN(N=O)c1ccc(O)c(O)c1 [Compound 808, Me-3,4-dephostatin]",101
15,"CC(COc1ccccc1)N(CCCl)Cc1ccccc1 (stereo not drawn) [Compound 200, Phenoxybenzamine hydrochloride]",86
16,"CCCCOc1cc(CC2CNC(=O)N2)ccc1OC (stereo not drawn) [Compound 189, Ro 20-1724]",122

row,Compound,"Compound effect (percent receptor signaling in presence of test compound, relative lux units relative to the SCH23390 control)"
1,NCS-356 [Compound 849],99
2,"C[Se]C[C@H](N)C(=O)O.Cl [Compound 792, Se-(methyl)selenocysteine hydrochloride]",129
3,"Cl.OC1CCCCC1N1CCC(c2ccccc2)CC1 (racemic) [Compound 1259, (±)-Vesamicol hydrochloride]",97
4,"CCOC(=O)c1ncn2c1[C@@H]1CCCN1C(=O)c1cc(OC)ccc1-2 [Compound 718, L-655,708]",90
5,"CN(C)CCC=C1c2ccccc2C=Cc2ccccc21 [Compound 263, Cyclobenzaprine hydrochloride]",106
6,"CCCN(CCC)C(=O)C(CCC(=O)O)NC(=O)c1ccccc1 (stereo not drawn) [Compound 812, Proglumide]",97
7,"O=C(O)[C@@H]1[C@H](C(=O)O)[C@H]2CC[C@@H]1O2 [Compound 495, Endothall]",117
8,"C[C@]12CC[C@H](O)CC1=CC[C@@H]1[C@@H]2CC[C@]2(C)C(=O)CC[C@@H]12 (relative stereo) [Compound 381, trans-Dehydroandrosterone]",114
9,"OCc1cc(C(O)CNCCCCCCOCCCCc2ccccc2)ccc1O (stereo not drawn) [Compound 1118, Salmeterol]",104
10,"CC1CN(S(=O)(=O)c2cccc3cnccc23)CCN1.Cl.Cl (stereo not drawn) [Compound 651, 1-(5-Isoquinolinylsulfonyl)-3-methylpiperazine dihydrochloride]",100
11,"O=C(O)C1=CCCNC1 [Compound 562, Guvacine hydrochloride]",94
12,"CCC1(c2ccccc2)C(=O)NCNC1=O [Compound 967, Primidone]",94
13,"Br.COc1ccc2c(c1)[C@]13CCCC[C@@H]1[C@H](C2)N(C)CC3.O [Compound 370, Dextromethorphan hydrobromide monohydrate]",102
14,"Cl.N=c1c[n+](N2CCOCC2)[n-]o1 [Compound 830, 3-Morpholinosydnonimine hydrochloride]",90
15,"O=C(O)/C=C/c1ccc(O)c(O)c1 [Compound 221, Caffeic Acid]",114
16,"COCCOC(=O)C1=C(C)NC(C)=C(C(=O)OC(C)C)C1c1cccc([N+](=O)[O-])c1 (stereo not drawn) [Compound 882, Nimodipine]",102

# Same assay, conditions: 10 µM compound, 300 nM dopamine, 2 hr; hit = compound effect <20
row,Compound,"Compound effect (percent receptor signaling in presence of test compound, relative lux units relative to the SCH23390 control) [%]"
1,(+)-Catechin Hydrate [Compound 230],111
2,"CCCn1c(=O)c2[nH]c(C3CCCC3)nc2n(CCCOC(=O)c2ccc(S(=O)(=O)F)cc2)c1=O [Compound 531, FSCPX]",97
3,"CCN(CC)C(=S)SSC(=S)N(CC)CC [Compound 1149, Tetraethylthiuram disulfide]",89
4,"CNCCNS(=O)(=O)c1cccc2cnccc12.Cl.Cl [Compound 811, H-8 dihydrochloride]",43
5,"COc1cc2c(CCNC(C)=O)c[nH]c2cc1O [Compound 574, 6-Hydroxymelatonin]",101
6,"COc1ccccc1N1CCN(CCN(C(=O)c2ccc(F)cc2)c2ccccn2)CC1.Cl.Cl [Compound 835, p-MPPF dihydrochloride]",81
7,(±)-Pindobind [Compound 1010],65
